Test results reported in US5650444A, “Substituted biphenyl derivatives” (American Home Products Corporation, priority 1995, dated 1997).
pIC50: −log10 of the molar value.

Tested on: PDE IV
Experiment: Test Procedure No. 2: functional inhibition of PDE IV (relaxation of guinea pig tracheal rings precontracted with carbachol)
Format: cell-based, guinea pig (male Hartley)
Conditions: in presence of CI-930 (10 μM)
Description: The following standard test is also employed to assess the abilities of compounds to inhibit PDE IV functionally. […]
Tracheal relaxation resulting from the inhibition of PDE-IV or PDE-III was assessed by a method similar to that employed by Harris et al. (1989). […] The functional inhibition of PDE-IV or PDE-III was determined by adding a test compound to the tissue bath in cumulatively increasing concentrations and monitoring the degree of relaxation induced in the continued presence of CI-930 or rolipram (respectively). […] Percent relaxations produced by each concentration of test compound were calculated as a percentage relaxation of tension maintained in the presence of the preincubating PDE inhibitor, relative to the final resting tension determined at the end of each experiment. […]

pIC50: 6.92
SMILES: COC(=O)c1cccc(-c2ccc(OC)c(OC3CCCC3)c2)c1 [Example 18, 3'-Cyclopentyloxy-4'-methoxy-biphenyl-3-carboxylic acid methyl ester]
